# Data published in patent publication US12371411B2, “Water and thermal treatment of purified 2,5-furandicarboxylic acid” (Furanix Technologies B.V., priority 2019, dated 2025).
# Assay: Solubility of FDCA for a given temperature and solvent
# Type: physicochemical
# Details: for Solubility at T, wt % in solvent / Solubility at temp., wt % in solvent: estimated FDCA solubility
# Description: The skilled person can adjust the thermal treatment conditions to the required degree of dissolution, wherein the following table can be used that lists values for the solubility of FDCA at a given temperature depending on the solvent composition employed. […] Intermediate values can be obtained by interpolation.
# For a better understanding, the estimated FDCA solubility in the given solvent at the process temperature is provided as well.
compound,measurement,setting,value
"O=C(O)c1ccc(C(=O)O)o1 [FDCA, 2,5-Furandicarboxylic acid]",Solubility of FDCA,"HAc:Water 0:100 by weight, 140° C.",7.0 wt %
same,Solubility of FDCA,"HAc:Water 0:100 by weight, 150° C.",9.2 wt %
same,Solubility of FDCA,"HAc:Water 0:100 by weight, 160° C.",11.7 wt %
same,Solubility of FDCA,"HAc:Water 0:100 by weight, 170° C.",14.8 wt %
same,Solubility of FDCA,"HAc:Water 0:100 by weight, 180° C.",18.4 wt %
same,Solubility of FDCA,"HAc:Water 0:100 by weight, 190° C.",22.4 wt %
same,Solubility of FDCA,"HAc:Water 0:100 by weight, 200° C.",26.8 wt %
same,Solubility of FDCA,"HAc:Water 10:90 by weight, 140° C.",7.7 wt %
same,Solubility of FDCA,"HAc:Water 10:90 by weight, 150° C.",9.9 wt %
same,Solubility of FDCA,"HAc:Water 10:90 by weight, 160° C.",12.6 wt %
same,Solubility of FDCA,"HAc:Water 10:90 by weight, 170° C.",15.6 wt %
same,Solubility of FDCA,"HAc:Water 10:90 by weight, 180° C.",19.2 wt %
same,Solubility of FDCA,"HAc:Water 10:90 by weight, 190° C.",23.1 wt %
same,Solubility of FDCA,"HAc:Water 10:90 by weight, 200° C.",27.4 wt %
same,Solubility of FDCA,"HAc:Water 20:80 by weight, 140° C.",8.3 wt %
same,Solubility of FDCA,"HAc:Water 20:80 by weight, 150° C.",10.6 wt %
same,Solubility of FDCA,"HAc:Water 20:80 by weight, 160° C.",13.3 wt %
same,Solubility of FDCA,"HAc:Water 20:80 by weight, 170° C.",16.3 wt %
same,Solubility of FDCA,"HAc:Water 20:80 by weight, 180° C.",19.8 wt %
same,Solubility of FDCA,"HAc:Water 20:80 by weight, 190° C.",23.7 wt %
same,Solubility of FDCA,"HAc:Water 20:80 by weight, 200° C.",27.8 wt %
same,Solubility of FDCA,"HAc:Water 30:70 by weight, 140° C.",8.9 wt %
same,Solubility of FDCA,"HAc:Water 30:70 by weight, 150° C.",11.1 wt %
same,Solubility of FDCA,"HAc:Water 30:70 by weight, 160° C.",13.8 wt %
same,Solubility of FDCA,"HAc:Water 30:70 by weight, 170° C.",16.8 wt %
same,Solubility of FDCA,"HAc:Water 30:70 by weight, 180° C.",20.1 wt %
same,Solubility of FDCA,"HAc:Water 30:70 by weight, 190° C.",23.8 wt %
same,Solubility of FDCA,"HAc:Water 30:70 by weight, 200° C.",27.8 wt %
same,Solubility of FDCA,"HAc:Water 40:60 by weight, 140° C.",9.1 wt %
same,Solubility of FDCA,"HAc:Water 40:60 by weight, 150° C.",11.3 wt %
same,Solubility of FDCA,"HAc:Water 40:60 by weight, 160° C.",13.9 wt %
same,Solubility of FDCA,"HAc:Water 40:60 by weight, 170° C.",16.7 wt %
same,Solubility of FDCA,"HAc:Water 40:60 by weight, 180° C.",19.9 wt %
same,Solubility of FDCA,"HAc:Water 40:60 by weight, 190° C.",23.4 wt %
same,Solubility of FDCA,"HAc:Water 40:60 by weight, 200° C.",27.1 wt %
same,Solubility of FDCA,"HAc:Water 50:50 by weight, 140° C.",9.0 wt %
same,Solubility of FDCA,"HAc:Water 50:50 by weight, 150° C.",11.0 wt %
same,Solubility of FDCA,"HAc:Water 50:50 by weight, 160° C.",13.4 wt %
same,Solubility of FDCA,"HAc:Water 50:50 by weight, 170° C.",16.0 wt %
same,Solubility of FDCA,"HAc:Water 50:50 by weight, 180° C.",19.0 wt %
same,Solubility of FDCA,"HAc:Water 50:50 by weight, 190° C.",22.1 wt %
same,Solubility of FDCA,"HAc:Water 50:50 by weight, 200° C.",25.6 wt %
same,Solubility of FDCA,"HAc:Water 60:40 by weight, 140° C.",8.2 wt %
same,Solubility of FDCA,"HAc:Water 60:40 by weight, 150° C.",10.0 wt %
same,Solubility of FDCA,"HAc:Water 60:40 by weight, 160° C.",12.1 wt %
same,Solubility of FDCA,"HAc:Water 60:40 by weight, 170° C.",14.5 wt %
same,Solubility of FDCA,"HAc:Water 60:40 by weight, 180° C.",17.0 wt %
same,Solubility of FDCA,"HAc:Water 60:40 by weight, 190° C.",19.9 wt %
same,Solubility of FDCA,"HAc:Water 60:40 by weight, 200° C.",22.9 wt %
same,Solubility of FDCA,"HAc:Water 70:30 by weight, 140° C.",6.8 wt %
same,Solubility of FDCA,"HAc:Water 70:30 by weight, 150° C.",8.3 wt %
same,Solubility of FDCA,"HAc:Water 70:30 by weight, 160° C.",10.0 wt %
same,Solubility of FDCA,"HAc:Water 70:30 by weight, 170° C.",12.0 wt %
same,Solubility of FDCA,"HAc:Water 70:30 by weight, 180° C.",14.2 wt %
same,Solubility of FDCA,"HAc:Water 70:30 by weight, 190° C.",16.6 wt %
same,Solubility of FDCA,"HAc:Water 70:30 by weight, 200° C.",19.2 wt %
same,Solubility of FDCA,"HAc:Water 80:20 by weight, 140° C.",4.9 wt %
same,Solubility of FDCA,"HAc:Water 80:20 by weight, 150° C.",6.1 wt %
same,Solubility of FDCA,"HAc:Water 80:20 by weight, 160° C.",7.5 wt %
same,Solubility of FDCA,"HAc:Water 80:20 by weight, 170° C.",9.1 wt %
same,Solubility of FDCA,"HAc:Water 80:20 by weight, 180° C.",10.9 wt %
same,Solubility of FDCA,"HAc:Water 80:20 by weight, 190° C.",12.9 wt %
same,Solubility of FDCA,"HAc:Water 80:20 by weight, 200° C.",15.1 wt %
same,Solubility of FDCA,"HAc:Water 90:10 by weight, 140° C.",3.5 wt %
same,Solubility of FDCA,"HAc:Water 90:10 by weight, 150° C.",4.5 wt %
same,Solubility of FDCA,"HAc:Water 90:10 by weight, 160° C.",5.6 wt %
same,Solubility of FDCA,"HAc:Water 90:10 by weight, 170° C.",7.0 wt %
same,Solubility of FDCA,"HAc:Water 90:10 by weight, 180° C.",8.7 wt %
same,Solubility of FDCA,"HAc:Water 90:10 by weight, 190° C.",10.6 wt %
same,Solubility of FDCA,"HAc:Water 90:10 by weight, 200° C.",12.8 wt %
same,Solubility of FDCA,"HAc:Water 95:5 by weight, 140° C.",3.3 wt %
same,Solubility of FDCA,"HAc:Water 95:5 by weight, 150° C.",4.4 wt %
same,Solubility of FDCA,"HAc:Water 95:5 by weight, 160° C.",5.7 wt %
same,Solubility of FDCA,"HAc:Water 95:5 by weight, 170° C.",7.3 wt %
same,Solubility of FDCA,"HAc:Water 95:5 by weight, 180° C.",9.3 wt %
same,Solubility of FDCA,"HAc:Water 95:5 by weight, 190° C.",11.6 wt %
same,Solubility of FDCA,"HAc:Water 95:5 by weight, 200° C.",14.3 wt %
same,"Solubility at T, wt % in solvent","HAc:Water 0:100, 130° C. (test Comp. 4)",5.3 wt % in solvent
same,"Solubility at temp., wt % in solvent","HAc:Water 0:100, 180° C. (test Ex. 3)",18.4 wt % in solvent
same,"Solubility at T, wt % in solvent","HAc:Water 70:30, 125° C. (test Comp. 3)",6.1 wt % in solvent
same,"Solubility at temp., wt % in solvent","HAc:Water 70:30, 180° C. (tests Ex. 1, Ex. 2)",14.2 wt % in solvent
